According to patent US12251449B2, “Synthetic multidomain peptide biomaterials that inhibit inducible nitric oxide synthase” (William Marsh Rice University, priority 2019, dated 2025):

How the values were obtained:
[1] = system: MOC1 tumors; assay: MOC orthotopic murine model of oral cancer (Example 9); details: established 4-5 mm MOC1 tumors, single 30 μl intratumoral injection
Experimental: MOC orthotopic murine model of oral cancer. MOC1 tumors were established by injecting 2×10^6 cells (70%:30% cells: Matrigel®Matrix) into the maxillary vestibule of the left oral cavity in C57BL/6J mice. […] Tumor growth was monitored by tumor size measurements (in diameter) taken at least two times per week using digital calipers to measure the longest dimension (single dimension). Data was then analyzed for Kaplan-Meier survival and tumor growth curves. […] Excessive tumor burden, defined as tumor diameter reaching 12 mm, tumor ulceration, or a weight loss of greater than 20% were factors that were considered for all endpoints in tumor growth and survival data.
Statistical methods. Statistical analyses were performed using Prism 7.0 (GraphPad, San Diego, CA). Statistical analyses for Kaplan-Meier survival curves were performed using the Log-rank/Mantel-Cox test. Statistical significance for tumor growth curves was determined by a two-way ANOVA test followed by selected comparison using Tukey's multiple comparison tests with multiple comparison correction. All p values were two-sided and p values less than 0.05 were considered significant.

[2] = reported in Aulisa et al., 2009; cited from earlier work
[3] = target: T1, iNOS (Mus musculus, UniProt P29477); assay: iNOS knockdown in vitro Greiss assay; format: cell-based
T1 construct: endogenous in cells; host or cells: RAW 264.7 murine macrophages stimulated with LPS and IFN-gamma
T1 sequence (P29477 1-1144): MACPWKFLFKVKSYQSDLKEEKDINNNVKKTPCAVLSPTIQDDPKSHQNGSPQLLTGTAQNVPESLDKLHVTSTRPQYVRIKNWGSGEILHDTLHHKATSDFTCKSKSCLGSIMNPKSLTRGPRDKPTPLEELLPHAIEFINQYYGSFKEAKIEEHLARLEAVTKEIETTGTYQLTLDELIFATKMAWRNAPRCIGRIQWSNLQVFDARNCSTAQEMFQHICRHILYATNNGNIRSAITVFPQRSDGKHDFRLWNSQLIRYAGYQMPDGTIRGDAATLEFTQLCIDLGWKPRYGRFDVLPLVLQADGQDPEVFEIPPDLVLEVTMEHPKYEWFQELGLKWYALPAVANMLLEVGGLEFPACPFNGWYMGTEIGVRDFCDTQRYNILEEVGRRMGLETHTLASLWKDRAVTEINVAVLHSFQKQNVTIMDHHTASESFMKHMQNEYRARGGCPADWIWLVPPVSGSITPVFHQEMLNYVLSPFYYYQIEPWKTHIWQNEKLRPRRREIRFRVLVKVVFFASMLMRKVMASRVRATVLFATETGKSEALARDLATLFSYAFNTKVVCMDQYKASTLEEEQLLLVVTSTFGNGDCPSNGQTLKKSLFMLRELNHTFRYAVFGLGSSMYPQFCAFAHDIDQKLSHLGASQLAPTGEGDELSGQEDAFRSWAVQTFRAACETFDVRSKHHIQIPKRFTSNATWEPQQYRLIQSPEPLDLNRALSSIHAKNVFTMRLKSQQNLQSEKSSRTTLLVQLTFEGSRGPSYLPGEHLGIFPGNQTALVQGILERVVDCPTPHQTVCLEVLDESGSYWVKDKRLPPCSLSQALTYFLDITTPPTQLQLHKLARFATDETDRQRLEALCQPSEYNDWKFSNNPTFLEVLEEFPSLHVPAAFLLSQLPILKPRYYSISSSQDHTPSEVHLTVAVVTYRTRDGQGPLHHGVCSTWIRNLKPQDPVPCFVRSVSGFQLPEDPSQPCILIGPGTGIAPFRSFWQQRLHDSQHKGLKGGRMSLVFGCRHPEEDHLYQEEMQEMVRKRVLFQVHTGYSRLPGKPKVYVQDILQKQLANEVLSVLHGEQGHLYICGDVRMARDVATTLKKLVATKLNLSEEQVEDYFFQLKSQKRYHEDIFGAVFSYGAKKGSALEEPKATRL
Experimental: iNOS knockdown in vitro Greiss assay. To evaluate the iNOS knockdown efficacy of various materials, the following procedure was used to test % iNOS inhibition of RAW 264.7 cells stimulated with Lipopolysaccharide (LPS, Thermo Fisher Scientific, Rockford, IL) and recombinant mouse IFN-7 (Biolegend, San Diego, CA). RAW macrophages were prepared at a stock concentration of 2.5×10^6 cells/mL, and plated at 2.5×10^5 cells per well in 24-well plates. For samples testing the efficacy of 2-D surface cell culture, 200 μL of MDP hydrogels was applied to evenly coat the surface of each well before addition of cells. Each experimental condition was performed in triplicate. The following controls were included in every experiment, 1) media alone, 2) stimulated cells alone, and 3) unstimulated cells alone. To each well, stimulation media or normal media was then added based on experimental requirement. Stimulation media was prepared with LPS (final concentration 1 μg/mL) and IFN-7 (final concentration 100 U/mL). For samples testing material efficacy in solution (e.g. free L-NIL), after 6 hrs of incubation at 37° C. with 5% CO2 the desired concentration of inhibitor was added to achieve a range of concentrations between 1 μM and 1 mM.
In all cases after 24 hours from time of stimulation, samples of cell media were collected from each well after mixing media by pipetting before collection. Media samples were placed into a 96-well plate and centrifuged at 5000 rpm for 10 min. Supernatants were removed and placed in a new clear 96-well plate, and samples were immediately analyzed using a colorimetric Greiss Assay (Cayman Chemical, Ann Arbor, MI) to assess nitrite levels (Bryan & Grisham, 2007). Color was allowed to develop for 10 min following addition of Greiss reagents, and absorbance was read at 540 nm on a plate reader. Percent iNOS inhibition for each sample was calculated by first subtracting the absorbance of the media-only baseline, and then converting to a percent of maximum nitrite signal as determined by the internal standard of stimulated cells alone.

[4] = system: RAW 264.7 cells; assay: Live-dead viability of RAW 264.7 cells on MDP hydrogels; format: cell-based, mouse; details: RAW macrophages on 1 wt. % hydrogel, one to three days
Experimental: Cell culture. For in vitro experiments, mouse RAW 264.7 cells (ATCC TIB-71) were grown in DMEM media supplemented with 10% Heat-Inactivated Fetal Bovine Serum (HI-FBS), L-glutamine, sodium pyruvate, and 1% penicillin-streptomycin. Cells were cultured at 37° C. with 5% CO2 and subcultured using scraping.
For 2-D culture live-dead viability studies, peptide hydrogels were pipetted into 0.4 cm^2 wells of Lab-Tek 16 well glass chamber slides (Thermo Fischer, Rochester, NY). Gels were pipetted to produce 70 μL pucks with a thickness of 1.75 mm. The gels were carefully pipetted into the bottom of each well and tapped before shear recovery to create flat gel profiles. After pipetting, the samples were allowed to shear recover for 5-10 min before adding 200 μL cell media and 10,000 RAW 264.7 cells. For each experiment time point (days 1 and 3) separate slides with duplicate gels were created. The cell media was changed every 2 days, taking care to not disturb or dislodge the gel material.
At each desired time point the following procedure was used to stain the cells for live-dead analysis. Live-dead staining solution was prepared in DPBS (Thermo Fisher Scientific, Rockford, IL) with 2 μM Calcein AM (Life Technologies), 4 μM Ethidium homodimer (Life Technologies), and 5 μg/mL Hoechst 33342 (BD Biosciences, San Jose, CA). Cell media was removed from the top of the hydrogel samples, which were then washed with PBS. Samples were then stained with 100 μL of prepared solution by incubating at 37° C. with 5% CO2 for 60 min while protected from light. After staining, the gels were removed from the glass chamber slides and placed in PBS before immediately imaging by confocal. Gels were analyzed by z-stack imaging using a Nikon A1 Confocal Microscope with a 40× water objective (405 nm blue channel laser, 488 nm green channel laser, 561 nm red channel laser). Image processing was done using NIS Elements, and Imaris Cell Counting software was used to quantify live-dead percentages.

[5] = system: iNOS; assay: Anti-nitrotyrosine immunostaining of subcutaneously injected hydrogels; format: in vivo, mice; details: subcutaneous implants, 3 and 7 days post injection
Experimental: Subcutaneous experiments and histology. C57BL/6J female mice were purchased from The Jackson Laboratory at age 8-12 weeks for subcutaneous characterization experiments. Mice were housed under specific pathogen-free conditions in standard temperature and lighting conditions with free access to food and water, and experiments were conducted with approval of the Institutional Animal Care and Use Committee (IACUC) at Rice University and according to NIH guidelines. Mice were injected with 100 μL MDP hydrogels in each of four separate sites in the subcutaneous space of the dorsal flank after the skin was shaved and sterilized with alcohol. At days 3, 7, 14, and 21 the mice were euthanized and the dorsal skin around the entire implant was removed, fixed overnight in 10% neutral buffered formalin, processed and paraffin embedded, and finally sectioned at […] thickness for staining using standard Masson's trichrome or hematoxylin and eosin (H&E) procedures, as well as immunohistochemical analyses (e.g., anti-nitrotyrosine IHC, or α-SMA blood vessel analysis).
Immunohistochemistry staining was performed on hydrogel implant tissue sections to further study in vivo properties of the L-NIL-MDP compared to related cationic MDPs. Anti-nitrotyrosine immunostaining was used to assess relative levels of nitrosylation of tyrosine within and around the subcutaneously injected hydrogel implants as a marker of iNOS inhibition (FIGS. 7A-H). It is known that the formation of nitric oxide (NO) and other nitrogen oxides in vivo can lead to observable post-translation modifications of peptides and proteins (Ischiropoulos, 2003). For example, surface-exposed 3-nitrotyrosine can be used as a marker of cell or tissue inflammation and damage by reactive nitrogen and oxygen species such as NO (Ahsan, 2013). The higher the local levels of iNOS activity, the greater should be the density of nitrosylated tyrosine. Therefore, visualization of nitrotyrosine levels by targeted antibodies can serve as a general indication of in vivo iNOS activity, or in the case of the L-NIL-MDP, local iNOS inhibition.

SMILES: CC(=O)N[C@@H](CCCCN)C(=O)N[C@@H](CCCCN)C(=O)N[C@@H](CO)C(=O)N[C@@H](CC(C)C)C(=O)N[C@@H](CO)C(=O)N[C@@H](CC(C)C)C(=O)N[C@@H](CO)C(=O)N[C@@H](CC(C)C)C(=O)N[C@@H](CO)C(=O)N[C@@H](CC(C)C)C(=O)N[C@@H](CO)C(=O)N[C@@H](CC(C)C)C(=O)N[C@@H](CO)C(=O)N[C@@H](CC(C)C)C(=O)N[C@@H](CCCCN)C(=O)N[C@@H](CCCCN)C(N)=O [K2-MDP, K2(SL)6K2]
- median survival [1]: 46 days
- storage modulus (G′) [2]: 200-500 Pa
- free L-NIL concentration giving a comparable level of iNOS inhibition ([3]; hydrogel surface culture compared with free L-NIL in solution): < 10 µM
- iNOS inhibitory activity, fold less than L-NIL-MDP ([3]; in terms of comparison to free L-NIL concentration): ~10 fold
- iNOS inhibition (in words) ([3]; stimulated RAW macrophages cultured on the hydrogel): moderate
- cell attachment, survival and proliferation (in words) [4]: highest degrees of cell attachment and proliferation
- nitrotyrosine staining intensity (in words) [5]: moderate
